# Laboratory results as given in ChEMBL document CHEMBL1142029, “Design, synthesis, and biological activity of novel PPARgamma ligands based on rosiglitazone and 15d-PGJ2” (Bioorg Med Chem Lett, 2005).
# The source made the active and inactive calls. No cut-off for these calls is given here.
# Key:
# [1] = target: T1, Peroxisome proliferator-activated receptor gamma (Homo sapiens) (UniProt P37231); experiment: Binding affinity for peroxisome proliferator-activated receptor gamma: weak activity
# T1 sequence (whole entry): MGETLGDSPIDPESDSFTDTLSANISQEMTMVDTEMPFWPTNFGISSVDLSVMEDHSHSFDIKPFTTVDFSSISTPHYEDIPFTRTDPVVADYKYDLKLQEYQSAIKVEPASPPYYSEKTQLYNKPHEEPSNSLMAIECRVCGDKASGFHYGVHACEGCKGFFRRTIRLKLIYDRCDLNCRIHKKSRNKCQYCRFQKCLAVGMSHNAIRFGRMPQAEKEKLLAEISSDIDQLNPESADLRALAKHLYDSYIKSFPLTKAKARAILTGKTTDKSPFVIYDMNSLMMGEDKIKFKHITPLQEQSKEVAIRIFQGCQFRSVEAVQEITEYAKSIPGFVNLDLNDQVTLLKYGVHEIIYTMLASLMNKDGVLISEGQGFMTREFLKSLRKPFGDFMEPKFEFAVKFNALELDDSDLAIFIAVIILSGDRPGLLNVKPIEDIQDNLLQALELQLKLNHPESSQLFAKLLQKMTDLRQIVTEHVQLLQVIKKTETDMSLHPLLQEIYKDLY
# [2] = target: T1, Peroxisome proliferator-activated receptor gamma (Homo sapiens); experiment: Binding affinity for peroxisome proliferator-activated receptor gamma: active
# [3] = target: T1, Peroxisome proliferator-activated receptor gamma (Homo sapiens); experiment: Binding affinity for peroxisome proliferator-activated receptor gamma: more active
SMILES,Activity [2],also measured
O=C(O)CCc1ccc(OCCn2c3ccccc3c3ccncc32)cc1,,Activity [1]: Weak activity
CCCCCN(CCOc1ccc(CCC(=O)O)cc1)c1ccccn1,Active,
CCCCCCCN(CCOc1ccc(CCC(=O)O)cc1)c1ccccn1,,Activity [3]: Active
O=C(O)CCc1ccc(OCCN(c2ccccn2)c2ccccn2)cc1,,Activity [1]: Weak activity
CCN(CCOc1ccc(CCC(=O)O)cc1)c1ccccn1,Active,
CN(CCOc1ccc(CCC(=O)O)cc1)c1ccccn1,Active,
CCCCCCCCN(CCOc1ccc(CCC(=O)O)cc1)c1ccccn1,,Activity [3]: Active
O=C(O)CCc1ccc(OCCN(c2ccccc2)c2ccccn2)cc1,,Activity [1]: Weak activity
CCCCN(CCOc1ccc(CCC(=O)O)cc1)c1ccccn1,Active,
CCCCCCN(CCOc1ccc(CCC(=O)O)cc1)c1ccccn1,Active,
CCCCCCCCCCN(CCOc1ccc(CCC(=O)O)cc1)c1ccccn1,Active,
CCCN(CCOc1ccc(CCC(=O)O)cc1)c1ccccn1,Active,
